Each structure is given as a SMILES string.

Series [1] addresses T1, recombinant human cannabinoid 1 receptor (CB1) (Homo sapiens, UniProt P21554).
T1 construct: expressed in transfected cells
Briefly: In vitro determination of antagonism to CB1-receptor, [35S]GTPγS binding assay. Format: biochemical. The note with it: compound 1 µM versus agonist WIN 55,212-2; 100 % = maximal antagonism with Rimonabant (1 µM). As to the method:
The reaction is performed in 96-well plates. […] Radioactivity is determined using a Wallac Microbeta Trilux. Each experiment is performed at least in duplicate.
The average of basal [^35S]GTPγS binding is subtracted from all binding data.
On the technique in general: GTPγS is a poorly hydrolysed GTP analogue; its binding reports G protein activation.

A short description of series [2]: Feeding study in dietary-induced obese rats: food intake and body weight. Format: in vivo, female Wistar rats. To be noted: end of 28 day treatment, Figure 3. As to the method:
The experiment was performed on female Wistar rats (originally in the weight range 250-300 g). The rats were housed in pairs in polypropylene cages with solid floors and sawdust bedding at a temperature of 21±4°C and 55±20% humidity. Animals were maintained on a reverse phase light-dark cycle (lights off for 8 h from 09.30-17.30 h) during which time the room was illuminated by red light. Animals had free access to powdered high fat diet (VRF1 plus 20% lard), ground chocolate, ground peanuts and tap water at all times. The three different diets were contained in separate glass feeding jars with aluminum lids with a 3-4 cm hole cut in it to allow access to the food. Animals were housed in pairs for twelve weeks for the induction of obesity. Animals were then housed singly in polypropylene cages with wire grid floors to enable the food intake of each rat to be recorded. Polypropylene trays with cage pads were placed beneath each cage to detect any food spillage. Animals were accustomed to these new conditions (individual housing and the wire-grid floor cages) for at least 14 days before the start of the baseline readings. […] Food intake and body weight were measured once daily. […] Thus, means were adjusted for differences in body weight between the groups on Day 1 and standard errors of the mean (SEM) were calculated from the residuals of the statistical model. […]

The nature of series [3]: Determination of carcass fat content in dietary-induced obese rats. Format: in vivo, female Wistar rats. The note with it: g per rat, Figure 4. As to the method: (§1) The experiment was performed on female Wistar rats (originally in the weight range 250-300 g). The rats were housed in pairs in polypropylene cages with solid floors and sawdust bedding at a temperature of 21±4°C and 55±20% humidity. Animals were maintained on a reverse phase light-dark cycle (lights off for 8 h from 09.30-17.30 h) during which time the room was illuminated by red light. Animals had free access to powdered high fat diet (VRF1 plus 20% lard), ground chocolate, ground peanuts and tap water at all times. The three different diets were contained in separate glass feeding jars with aluminum lids with a 3-4 cm hole cut in it to allow access to the food. Animals were housed in pairs for twelve weeks for the induction of obesity. Animals were then housed singly in polypropylene cages with wire grid floors to enable the food intake of each rat to be recorded. […] Animals were accustomed to these new conditions (individual housing and the wire-grid floor cages) for at least 14 days before the start of the baseline readings. […] Percentage fat in the freeze-dried sample was calculated as follows: % fat = [100 × (final cup weight-initial cup weight)]/sample weight [formula] Percentage fat in the original sample was calculated using the % water as follows: % fat in original sample = % fat[(100-%water)/100] […]

A short description of series [4]: Plasma leptin assay in dietary-induced obese rats. Format: in vivo, female Wistar rats. To be noted: Figure 5. The method, then: as §1, with “Plasma leptin concentration was determined using Assay Designs rat leptin enzyme immunometric assay kits (Cat No. 900-015) according to” for “Percentage fat in”, “manufacturer's regular protocol. […] Optical density at 450 nm” for “freeze-dried sample”, “determined” for “calculated as follows: % fat = [100 × (final cup weight-initial cup weight)]/sample weight [formula] Percentage fat in the original sample was calculated”, “a Molecular Devices VERSAmax tunable microplate reader and readings transferred to GraphPad Prism.” for “the % water as follows: % fat in original sample = % fat[(100-%water)/100]”

Series [5] can be described thus: Plasma insulin assay in dietary-induced obese rats. The format is in vivo, female Wistar rats. To be noted: Figure 6. As to the method: as §1, with “Plasma insulin concentration was determined using Mercodia ultrasensitive rat insulin ELISA kits according to” for “Percentage fat in”, “manufacturers 50 µl” for “freeze-dried”, “sample protocol. […] Optical density at 450 nm” for “sample”, “determined” for “calculated as follows: % fat = [100 × (final cup weight-initial cup weight)]/sample weight [formula] Percentage fat in the original sample was calculated”, “a Molecular Devices VERSAmax tunable microplate reader and readings transferred to GraphPad Prism.” for “the % water as follows: % fat in original sample = % fat[(100-%water)/100]”

Series [6] can be described thus: Stability of the crystalline form. The format is physicochemical. The note with it: under certain conditions, especially around room temperature, and/or over time.
Series [7] in a line: Solubility. Format: physicochemical.
Series [8] deals with Herg channel (Homo sapiens, UniProt Q12809). Briefly: Herg channel affinity. The note with it: low risk of prolongation of the QT-interval expected.
The mark [9] stands for this setting: 10 mg/kg po once daily for 28 days.
The mark [10] stands for this setting: 30 mg/kg po once daily for 28 days.

T1 sequence (P21554 whole entry): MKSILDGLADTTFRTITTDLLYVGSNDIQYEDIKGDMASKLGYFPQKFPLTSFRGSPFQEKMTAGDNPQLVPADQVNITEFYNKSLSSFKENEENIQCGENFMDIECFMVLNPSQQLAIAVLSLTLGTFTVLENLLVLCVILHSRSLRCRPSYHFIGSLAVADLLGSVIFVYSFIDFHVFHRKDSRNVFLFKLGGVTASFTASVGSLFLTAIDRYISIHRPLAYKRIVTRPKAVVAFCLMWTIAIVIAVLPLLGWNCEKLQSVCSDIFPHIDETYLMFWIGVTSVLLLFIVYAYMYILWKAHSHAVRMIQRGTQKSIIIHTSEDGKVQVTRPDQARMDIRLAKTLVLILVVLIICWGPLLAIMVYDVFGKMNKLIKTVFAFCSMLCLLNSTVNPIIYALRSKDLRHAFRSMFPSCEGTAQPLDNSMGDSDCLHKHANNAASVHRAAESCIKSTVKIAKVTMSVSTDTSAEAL
Sequence of Herg channel (Q12809 whole entry): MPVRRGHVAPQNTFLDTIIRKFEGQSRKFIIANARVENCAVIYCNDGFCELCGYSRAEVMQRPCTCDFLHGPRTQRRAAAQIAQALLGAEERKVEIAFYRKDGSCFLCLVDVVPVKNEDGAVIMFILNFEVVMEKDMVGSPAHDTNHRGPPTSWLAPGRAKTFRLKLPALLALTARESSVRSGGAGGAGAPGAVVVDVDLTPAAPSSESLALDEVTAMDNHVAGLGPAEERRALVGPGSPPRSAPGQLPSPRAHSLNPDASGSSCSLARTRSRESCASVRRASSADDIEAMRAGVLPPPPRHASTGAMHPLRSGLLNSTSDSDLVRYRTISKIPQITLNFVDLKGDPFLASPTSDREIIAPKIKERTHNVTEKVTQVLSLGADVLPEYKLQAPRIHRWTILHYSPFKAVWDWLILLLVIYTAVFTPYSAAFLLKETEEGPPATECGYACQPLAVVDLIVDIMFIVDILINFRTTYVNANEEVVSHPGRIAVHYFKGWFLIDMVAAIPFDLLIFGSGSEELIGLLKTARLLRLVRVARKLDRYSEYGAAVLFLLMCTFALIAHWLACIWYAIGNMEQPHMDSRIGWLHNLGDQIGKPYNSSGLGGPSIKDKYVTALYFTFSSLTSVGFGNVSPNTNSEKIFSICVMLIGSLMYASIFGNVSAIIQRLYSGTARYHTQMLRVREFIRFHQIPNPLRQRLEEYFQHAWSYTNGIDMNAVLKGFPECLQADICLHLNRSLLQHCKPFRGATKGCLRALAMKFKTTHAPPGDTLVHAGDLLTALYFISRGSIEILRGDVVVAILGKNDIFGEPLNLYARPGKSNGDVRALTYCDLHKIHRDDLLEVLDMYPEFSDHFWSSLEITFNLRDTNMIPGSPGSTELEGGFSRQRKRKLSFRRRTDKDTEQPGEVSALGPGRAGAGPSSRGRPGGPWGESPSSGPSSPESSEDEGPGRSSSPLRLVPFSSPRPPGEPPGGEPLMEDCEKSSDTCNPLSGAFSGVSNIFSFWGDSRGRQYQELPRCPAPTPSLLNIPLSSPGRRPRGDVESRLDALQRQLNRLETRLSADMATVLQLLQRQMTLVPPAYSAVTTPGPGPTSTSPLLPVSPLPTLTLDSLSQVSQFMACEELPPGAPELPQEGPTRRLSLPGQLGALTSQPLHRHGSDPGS

With `O=C(NN1CCCCC1)C1=NN(c2ccc(Cl)cc2Cl)[C@@H](c2ccc(Cl)cc2)C1` [Compound A, (R)-N-piperidinyl-5-(4-chlorophenyl)-1-(2,4-dichlorophenyl)-4,5-dihydro-1H-pyrazole-3-carboxamide], the “Antagonism [%]” value in series [1] worked out at 106%. Further, the figures for the “body weights lower than those of the vehicle-treated controls” value in series [2] (10 mg/kg po once daily) and in series [2] (30 mg/kg po once daily) were 12.0% and 19.0%, respectively. The “decrease in body fat compared to the vehicle-treated control group” value in series [3] (setting [9]) worked out at 42.8 g; in series [3] (setting [10]), 67.8 g. Also, the results for the “decrease of plasma leptin levels compared to the vehicle-treated control group” value in series [4] (setting [9]) and in series [4] (setting [10]) were 36.1% and 61.7%, respectively. Besides, the results for the “decrease of plasma insulin levels compared to the vehicle-treated control group” value in series [5] (setting [9]) and in series [5] (setting [10]) were 38.9% and 41.8%, respectively.
For `O=C(NN1CCCCC1)C1=NN(c2ccc(Cl)cc2Cl)[C@@H](c2ccc(Cl)cc2)C1` [α-Polymorph, α-Polymorph of (R)-N-piperidinyl-5-(4-chlorophenyl)-1-(2,4-dichlorophenyl)-4,5-dihydro-1H-pyrazole-3-carboxamide], the stability entry in series [6] is reported as “good stability”. The solubility result in series [7] is given as “relatively good”. The Herg channel affinity result in series [8] is given as “relatively weak”.
